From PubChem BioAssay AID1259407 (Chemical Carcinogenesis Research Information System (CCRIS), 2018) come the findings set out here.

The series concerns CCRIS mutagenicity, Ames/micronucleus/aberration tests. Briefly: CCRIS mutagenicity studies.
[1] abbreviates: Test System: AMES SALMONELLA TYPHIMURIUM, Strain/Indicator: TA98, Metabolic Activation: NONE, Method: STANDARD PLATE.
Setting [2] is: Test System: AMES SALMONELLA TYPHIMURIUM, Strain/Indicator: TA98, Metabolic Activation: RAT, LIVER, S-9, AROCLOR 1254, Method: STANDARD PLATE.
Setting [3] is: Test System: AMES SALMONELLA TYPHIMURIUM, Strain/Indicator: TA100, Metabolic Activation: NONE, Method: STANDARD PLATE.
Setting [4] is: Test System: AMES SALMONELLA TYPHIMURIUM, Strain/Indicator: TA100, Metabolic Activation: RAT, LIVER, S-9, AROCLOR 1254, Method: STANDARD PLATE.
Setting [5] is: Test System: AMES SALMONELLA TYPHIMURIUM, Strain/Indicator: TA1535, Metabolic Activation: NONE, Method: STANDARD PLATE.
Where [6] appears, read: Test System: AMES SALMONELLA TYPHIMURIUM, Strain/Indicator: TA1535, Metabolic Activation: RAT, LIVER, S-9, AROCLOR 1254, Method: STANDARD PLATE.
Setting [7] is: Test System: AMES SALMONELLA TYPHIMURIUM, Strain/Indicator: TA1537, Metabolic Activation: NONE, Method: STANDARD PLATE.
The mark [8] stands for this setting: Test System: AMES SALMONELLA TYPHIMURIUM, Strain/Indicator: TA1537, Metabolic Activation: RAT, LIVER, S-9, AROCLOR 1254, Method: STANDARD PLATE.
[9] abbreviates: Test System: AMES SALMONELLA TYPHIMURIUM, Strain/Indicator: TA1538, Metabolic Activation: NONE, Method: STANDARD PLATE.
Setting [10] is: Test System: AMES SALMONELLA TYPHIMURIUM, Strain/Indicator: TA1538, Metabolic Activation: RAT, LIVER, S-9, AROCLOR 1254, Method: STANDARD PLATE.

Activity calls are given as the source filed them. The rule behind the calls is not given here.

Regarding `CO/N=C(\C(=O)N[C@@H]1C(=O)N2C(C(=O)O)=C(CSC(=O)c3ccco3)CS[C@H]12)c1csc(N)n1`, the mutagenic call runs as follows: under setting [1], “inactive; negative”; under setting [2], “inactive; negative”; under setting [3], “inactive; negative”; under setting [4], “inactive; negative”; under setting [5], “inactive; negative”; under setting [6], “inactive; negative”. In addition, the mutagenic call was “inactive; negative” under setting [7]; “inactive; negative” under setting [8]; “inactive; negative” under setting [9]; “inactive; negative” under setting [10]; “inactive; negative” (Test System: CHINESE HAMSTER V-79, Strain/Indicator: V-79 (HPRT)/6-THIOGUANINE, Metabolic Activation: NONE); “inactive; negative” (Test System: CHINESE HAMSTER V-79, Strain/Indicator: V-79 (HPRT)/6-THIOGUANINE, Metabolic Activation: RAT, LIVER, S-9, AROCLOR 1254). In addition, under “Test System: UDS RAT HEPATOCYTES, Strain/Indicator: THY INCORP, Metabolic Activation: NONE, Method: IN VIVO-IN VITRO”, the mutagenic call was “inactive; negative”.

`O=[N+]([O-])c1ccc(/C=C/c2cccc(CO)n2)o1`: the mutagenic call (Test System: UDS HUMAN FIBROBLASTS, Strain/Indicator: THY INCORP (NON-S-PHASE), Metabolic Activation: NONE, Method: AUTORADIOGRAPHY) was “active; positive”.

With `c1ccc2sncc2c1`, the mutagenic call was “inactive; negative” under setting [1]; “inactive; negative” (Test System: AMES SALMONELLA TYPHIMURIUM, Strain/Indicator: TA98, Metabolic Activation: S-9, Method: STANDARD PLATE); “inactive; negative” under setting [3]; “inactive; negative” (Test System: AMES SALMONELLA TYPHIMURIUM, Strain/Indicator: TA100, Metabolic Activation: S-9, Method: STANDARD PLATE); “inactive; negative” under setting [5]; “inactive; negative” (Test System: AMES SALMONELLA TYPHIMURIUM, Strain/Indicator: TA1535, Metabolic Activation: S-9, Method: STANDARD PLATE). Further, the mutagenic call is “inactive; negative” under setting [7] and “inactive; negative” (Test System: AMES SALMONELLA TYPHIMURIUM, Strain/Indicator: TA1537, Metabolic Activation: S-9, Method: STANDARD PLATE).

Take `ClN1C2c3ccccc3-c3ccccc3C21` (configuration not stated): the mutagenic call was “active; positive” under setting [3] and “active; positive” (Test System: CHINESE HAMSTER V-79, Strain/Indicator: V-79/6-THIOGUANINE, Metabolic Activation: NONE, Method: STANDARD PLATE).

As to `ClC(CBr)CBr`, the mutagenic call is “active; positive” (Test System: AMES SALMONELLA TYPHIMURIUM, Strain/Indicator: TA100, Metabolic Activation: RAT, LIVER, MICROSOMES, PHENOBARBITAL, NADPH COFACTORS, Method: STANDARD PLATE) and “inactive; negative” (Test System: AMES SALMONELLA TYPHIMURIUM, Strain/Indicator: TA100, Metabolic Activation: RAT, LIVER, MICROSOMES, PHENOBARBITAL, Method: STANDARD PLATE).

Consider `CC1CC(C(C)C(C)(C)O)O[C@H]2C[C@@]3(C)[C@@H]4CC[C@H]5C(C)(C)C(=O)CC[C@@]56C[C@@]46CC[C@]3(C)[C@@H]12` (some centres not stated), for which the mutagenic call (End Point: IN VITRO MICRONUCLEUS, Test System: HUMAN PERIPHERAL LYMPHOCYTES, Metabolic Activation: NONE) is “inactive; negative”.

Consider `[Cl][V]([Cl])[Cl]`, for which the mutagenic call was “inactive; negative” (Test System: AMES SALMONELLA TYPHIMURIUM, Strain/Indicator: TA98, Metabolic Activation: NONE, Method: PREINCUBATION); “inactive; negative” (Test System: AMES SALMONELLA TYPHIMURIUM, Strain/Indicator: TA98, Metabolic Activation: RAT LIVER S-9, PHENOBARBITAL AND BETA-NAPHTHOFLAVONE, Method: PREINCUBATION); “inactive; negative” (Test System: AMES SALMONELLA TYPHIMURIUM, Strain/Indicator: TA100, Metabolic Activation: NONE, Method: PREINCUBATION); “inactive; negative” (Test System: AMES SALMONELLA TYPHIMURIUM, Strain/Indicator: TA100, Metabolic Activation: RAT LIVER S-9, PHENOBARBITAL AND BETA-NAPHTHOFLAVONE, Method: PREINCUBATION); “inactive; negative” (Test System: AMES SALMONELLA TYPHIMURIUM, Strain/Indicator: TA1535, Metabolic Activation: NONE, Method: PREINCUBATION); “inactive; negative” (Test System: AMES SALMONELLA TYPHIMURIUM, Strain/Indicator: TA1535, Metabolic Activation: RAT LIVER S-9, PHENOBARBITAL AND BETA-NAPHTHOFLAVONE, Method: PREINCUBATION). Further, the mutagenic call was “inactive; negative” (Test System: AMES SALMONELLA TYPHIMURIUM, Strain/Indicator: TA1537, Metabolic Activation: NONE, Method: PREINCUBATION); “inactive; negative” (Test System: AMES SALMONELLA TYPHIMURIUM, Strain/Indicator: TA1537, Metabolic Activation: RAT LIVER S-9, PHENOBARBITAL AND BETA-NAPHTHOFLAVONE, Method: PREINCUBATION); “inactive; negative” (Test System: AMES SALMONELLA TYPHIMURIUM, Strain/Indicator: TA1538, Metabolic Activation: NONE, Method: PREINCUBATION); “inactive; negative” (Test System: AMES SALMONELLA TYPHIMURIUM, Strain/Indicator: TA1538, Metabolic Activation: RAT LIVER S-9, PHENOBARBITAL AND BETA-NAPHTHOFLAVONE, Method: PREINCUBATION); “inactive; negative” (Test System: E.COLI, Strain/Indicator: WP2UVRA, Metabolic Activation: NONE, Method: PREINCUBATION); “inactive; negative” (Test System: E.COLI, Strain/Indicator: WP2UVRA, Metabolic Activation: RAT LIVER S-9, PHENOBARBITAL AND BETA-NAPHTHOFLAVONE, Method: PREINCUBATION).

`CN(C)CCNC(=O)c1cccc2c1Oc1ccccc1O2`: the mutagenic call under setting [7] was “active; positive”.

`Cc1nnc(NS(=O)(=O)c2ccc(N)cc2)s1`: the mutagenic call reads like this: (Test System: AMES SALMONELLA TYPHIMURIUM, Strain/Indicator: TA98, Metabolic Activation: HAMSTER, LIVER, S-9, AROCLOR 1254, Method: STANDARD PLATE) “inactive; negative”; under setting [1], “inactive; negative”; under setting [2], “inactive; negative”; (Test System: AMES SALMONELLA TYPHIMURIUM, Strain/Indicator: TA100, Metabolic Activation: HAMSTER, LIVER, S-9, AROCLOR 1254, Method: STANDARD PLATE) “inactive; negative”; under setting [3], “inactive; negative”; under setting [4], “inactive; negative”. For the same compound, the mutagenic call is “inactive; negative” (Test System: AMES SALMONELLA TYPHIMURIUM, Strain/Indicator: TA1535, Metabolic Activation: HAMSTER, LIVER, S-9, AROCLOR 1254, Method: STANDARD PLATE); “inactive; negative” under setting [5]; “inactive; negative” under setting [6]; “inactive; negative” (Test System: AMES SALMONELLA TYPHIMURIUM, Strain/Indicator: TA1537, Metabolic Activation: HAMSTER, LIVER, S-9, AROCLOR 1254, Method: STANDARD PLATE); “inactive; negative” under setting [7]; “inactive; negative” under setting [8]. Further, the mutagenic call by setting is: (Test System: AMES SALMONELLA TYPHIMURIUM, Strain/Indicator: TA1538, Metabolic Activation: HAMSTER, LIVER, S-9, AROCLOR 1254, Method: STANDARD PLATE) “inactive; negative”; under setting [9], “inactive; negative”; under setting [10], “inactive; negative”; (Test System: MOUSE LYMPHOMA, Strain/Indicator: L5178Y (TK+/TK-), Metabolic Activation: NONE, Method: SUSPENSION/PLATE) “inactive; negative. reevaluation of results: negative”; (Test System: MOUSE LYMPHOMA, Strain/Indicator: L5178Y (TK+/TK-), Metabolic Activation: RAT, LIVER, S-9, AROCLOR 1254, Method: SUSPENSION/PLATE) “inactive; negative. reevaluation of results: equivocal”.
